The results in this text go back to ChEMBL document CHEMBL4610120, “New Broad-Spectrum Antibiotics Containing a Pyrrolobenzodiazepine Ring with Activity against Multidrug-Resistant Gram-Negative Bacteria” (J Med Chem, 2020).

In brackets after ≈: the same amount, converted by molar mass.

Series [1] has as its system Acinetobacter baumannii. The series can be described thus: Antimicrobial activity against Acinetobacter baumannii ATCC 17978 by microdilution broth method. The series is classed as functional. In general terms: Dilution methods test growth across graded concentrations, often in twofold steps.
The subject of a further series is Pseudomonas aeruginosa. The series can be described thus: Antimicrobial activity against Pseudomonas aeruginosa PAO1 by microdilution broth method. The class given is functional.
The next series concerns Enterococcus faecium. Description: Antibacterial activity against vancomycin resistant Enterococcus faecium NCTC 12204 by microdilution broth method. The class given is functional.
Series [2] relates to Enterococcus faecalis. The series can be described thus: Antibacterial activity against vancomycin resistant Enterococcus faecalis NCTC 12201 by microdilution broth method. The class given is functional.
Series [3] has as its system Enterococcus faecalis. The series can be described thus: Antibacterial activity against vancomycin sensitive Enterococcus faecalis NCTC 775 by microdilution broth method. The series is classed as functional.
The subject of series [4] is Staphylococcus aureus. Description: Antibacterial activity against methicillin resistant Staphylococcus aureus NCTC 13616 by microdilution broth method. The series is classed as functional.
In series [5] the test system is Staphylococcus aureus. Description: Antibacterial activity against methicillin resistant Staphylococcus aureus NCTC 13277 by microdilution broth method. The series is classed as functional.
In series [6] the test system is Staphylococcus aureus. The series can be described thus: Antibacterial activity against methicillin sensitive Staphylococcus aureus NCTC 6571 by microdilution broth method. The class given is functional.
For series [7], the system named is DNA. Description: Stabilization of 5'-FAM-TAT-ATA-TAG-ATA-TTT-TTT-TAT-CTA-TAT-ATA-3'-TAMRA DNA (unknown origin) assessed as reduction in change in melting temperature at 1:1 to 5:1 ligand to DNA ratio measured after 3 hrs by FRET-based assay relative to control. The class given is ADME, nucleic-acid assay.
Series [8] deals with DNA. Description: Stabilization of 5'-FAM-TAT-AGA-TAT-AGA-TAT-TTT-ATA-TCT-ATA-TCT-ATA-3'-TAMRA DNA (unknown origin) assessed as reduction in change in melting temperature at 1:1 to 5:1 ligand to DNA ratio measured after 3 hrs by FRET-based assay relative to control. The class given is ADME, nucleic-acid assay.
A short description of series [9]: Cytotoxicity against human WI38 cells assessed as cell viability at 20 uM measured after 24 hrs by MTT assay relative to control. The class given is cell-based, WI-38. The conditions noted are these: read-out: Activity.
Series [10] in a line: Selectivity ratio of cytotoxicity against human WI38 cells to MIC for Acinetobacter baumannii ATCC 17978. The series is classed as toxicity, cell-based.
Series [11] is described as follows: Selectivity ratio of cytotoxicity against human WI38 cells to MIC for multidrug-resistant Acinetobacter baumannii AYE. The class given is toxicity, cell-based.
A short description of series [12]: Selectivity ratio of cytotoxicity against human WI38 cells to MIC for Klebsiella pneumoniae M6. The class given is toxicity, cell-based.
Series [13] is described as follows: Selectivity ratio of cytotoxicity against human WI38 cells to MIC for multidrug-resistant Klebsiella pneumoniae NCTC 13368. The class given is toxicity, cell-based.
The nature of series [14]: Selectivity ratio of cytotoxicity against human WI38 cells to MIC for Pseudomonas aeruginosa PAO1. The series is classed as toxicity, cell-based.
A short description of series [15]: Selectivity ratio of cytotoxicity against human WI38 cells to MIC for multidrug-resistant Pseudomonas aeruginosa NCTC 13437. The class given is toxicity, cell-based.
Series [16] in a line: Selectivity ratio of cytotoxicity against human WI38 cells to MIC for vancomycin resistant Enterococcus faecium NCTC 12204. The series is classed as toxicity, cell-based.
The nature of series [17]: Selectivity ratio of cytotoxicity against human WI38 cells to MIC for vancomycin resistant Enterococcus faecalis NCTC 12201. The series is classed as toxicity, cell-based.
Series [18] can be described thus: Selectivity ratio of cytotoxicity against human WI38 cells to MIC for vancomycin sensitive Enterococcus faecalis NCTC 775. The series is classed as toxicity, cell-based.
The nature of series [19]: Selectivity ratio of cytotoxicity against human WI38 cells to MIC for methicillin resistant Staphylococcus aureus NCTC 13616. The class given is toxicity, cell-based.
Series [20] can be described thus: Selectivity ratio of cytotoxicity against human WI38 cells to MIC for methicillin resistant Staphylococcus aureus NCTC 13277. The class given is toxicity, cell-based.
Series [21] can be described thus: Selectivity ratio of cytotoxicity against human WI38 cells to MIC for methicillin sensitive Staphylococcus aureus NCTC 6571. The class given is toxicity, cell-based.
The test system of series [22] is Acinetobacter baumannii. The series can be described thus: Antimicrobial activity against multidrug-resistant Acinetobacter baumannii AYE by microdilution broth method. The series is classed as functional.

What is called MIC is the lowest concentration found to suppress growth. Low values mean a more susceptible organism, high ones a less susceptible organism. With `COc1cc2c(cc1OCCCC(=O)Nc1cc(C(=O)Nc3ccc4sc(C(=O)N5CCOCC5)cc4c3)n(C)c1)N=C[C@@H]1CCCN1C2=O`, the MIC with Acinetobacter baumannii [1] is 8 µg/mL (≈ 11.4 µM); in the series on Pseudomonas aeruginosa, 64 µg/mL (≈ 91.6 µM); in the series on Enterococcus faecium, at most 0.125 µg/mL; against Enterococcus faecalis [2], at most 0.125 µg/mL; in the series with Enterococcus faecalis [3] it was at most 0.125 µg/mL; with Staphylococcus aureus [4], at most 0.125 µg/mL. Besides, the MIC is 0.5 µg/mL (≈ 0.716 µM) in the series on Staphylococcus aureus [5] and at most 0.125 µg/mL in the series with Staphylococcus aureus [6]. Further, the fold change (FC) in the series with DNA [7] and in the series on DNA [8] was 3 to 4 throughout. Besides, in series [9], the viability at 24 h, 20 µM was above 85%. Moreover, the selectivity ratio in series [10], in [11], in series [12], in [13], in series [14] and in series [15] was 10 in each case. Besides, the selectivity ratio in series [16], in series [17], in series [18], in series [19], in series [20] and in series [21] was 100 each time.
As for `COC(=O)c1cc(NC(=O)c2cc3cc(NC(=O)c4cc(NC(=O)CCCOc5cc6c(cc5OC)C(=O)N5CCC[C@H]5C=N6)cn4C)ccc3s2)cn1C`, the MIC in the series on Acinetobacter baumannii [1] is 64 µg/mL (≈ 83.6 µM); with Acinetobacter baumannii [22], 64 µg/mL (≈ 83.6 µM); in the series on Pseudomonas aeruginosa, above 128 µg/mL; against Enterococcus faecium, at most 0.125 µg/mL; against Enterococcus faecalis [2] it was at most 0.125 µg/mL; in the series on Enterococcus faecalis [3], at most 0.125 µg/mL. Further, the MIC against Staphylococcus aureus [4] was 0.5 µg/mL (≈ 0.653 µM); in the series on Staphylococcus aureus [5] it was 1 µg/mL (≈ 1.31 µM); in the series with Staphylococcus aureus [6], at most 0.125 µg/mL. The fold change (FC) in the series on DNA [7] and with DNA [8] was 3 to 4 each time. For the same compound, the viability at 24 h, 20 µM in [9] was 32%.
With `COc1cc2c(cc1OCCCC(=O)Nc1cc(C(=O)Nc3ccc4oc(C(=O)N5CCCCC5)cc4c3)n(C)c1)N=C[C@@H]1CCCN1C2=O`, the minimum inhibitory concentration (MIC) against Acinetobacter baumannii [1] was 2 µg/mL (≈ 2.94 µM); in the series on Enterococcus faecium, at most 0.125 µg/mL; with Enterococcus faecalis [2] it was at most 0.125 µg/mL; in the series with Staphylococcus aureus [4] it was 0.25 µg/mL (≈ 0.367 µM); in the series with Staphylococcus aureus [5], 0.5 µg/mL (≈ 0.734 µM); against Staphylococcus aureus [6], at most 0.125 µg/mL. Moreover, the fold change (FC) in the series with DNA [7] and in the series with DNA [8] was 3 to 4 each time. Besides, the viability at 24 h, 20 µM in [9] is above 85%. For the same compound, the selectivity ratio in series [10], in series [11], in series [12], in series [13], in series [14] and in series [15] was 10 throughout. The selectivity ratio in series [16], in [17], in series [18], in series [19], in [20] and in [21] was 100 each time.
With `COc1cc2c(cc1OCCCC(=O)Nc1cc(C(=O)Nc3ccc4sc(C(=O)N5CCCCC5)cc4c3)n(C)c1)N=C[C@@H]1CCCN1C2=O`, the minimum inhibitory concentration (MIC) against Acinetobacter baumannii [1] was 8 µg/mL (≈ 11.5 µM); with Enterococcus faecium, at most 0.125 µg/mL; with Enterococcus faecalis [2], at most 0.125 µg/mL; in the series with Staphylococcus aureus [4], 0.5 µg/mL (≈ 0.718 µM); against Staphylococcus aureus [5] it was 1 µg/mL (≈ 1.44 µM); in the series with Staphylococcus aureus [6] it was at most 0.125 µg/mL. Further, the fold change (FC) in the series on DNA [7] and in the series on DNA [8] was 3 to 4 each time. Also, the viability at 24 h, 20 µM in series [9] was above 85%. The selectivity ratio in series [10], in [11], in series [12], in [13], in series [14] and in series [15] was 10 each time. In addition, the selectivity ratio in series [16], in series [17], in series [18], in series [19], in series [20] and in [21] was 100 throughout.
Take `COc1cc2c(cc1OCCCC(=O)Nc1cc(C(=O)Nc3ccc4oc(C(=O)N5CCOCC5)cc4c3)n(C)c1)N=C[C@@H]1CCCN1C2=O`: the MIC in the series on Acinetobacter baumannii [1] is 8 µg/mL (≈ 11.7 µM); against Pseudomonas aeruginosa it was above 128 µg/mL; with Enterococcus faecium, at most 0.125 µg/mL; against Enterococcus faecalis [2] it was at most 0.125 µg/mL; against Enterococcus faecalis [3] it was at most 0.125 µg/mL; in the series with Staphylococcus aureus [4], at most 0.125 µg/mL. In the series with Staphylococcus aureus [6], the minimum inhibitory concentration (MIC) was at most 0.125 µg/mL. For the same compound, the fold change (FC) in the series with DNA [7] and in the series with DNA [8] was 3 to 4 throughout. Also, the viability at 24 h, 20 µM in series [9] was above 85%. Further, the selectivity ratio in [10], in [11], in series [12], in series [13], in [14] and in [15] was 10 in each case. Further, the selectivity ratio in series [16], in series [17], in [18], in [19], in series [20] and in [21] was 100 throughout.
Consider `COc1cc2c(cc1OCCCC(=O)Nc1cc(C(=O)Nc3ccc4sc(C(=O)N5CCSCC5)cc4c3)n(C)c1)N=C[C@@H]1CCCN1C2=O`, for which the MIC against Acinetobacter baumannii [1] is 2 µg/mL (≈ 2.8 µM); against Pseudomonas aeruginosa, 64 µg/mL (≈ 89.5 µM); in the series with Enterococcus faecium, at most 0.125 µg/mL; in the series on Enterococcus faecalis [2], at most 0.125 µg/mL; against Enterococcus faecalis [3] it was at most 0.125 µg/mL; in the series with Staphylococcus aureus [4], at most 0.125 µg/mL. The MIC in the series with Staphylococcus aureus [5] and in the series on Staphylococcus aureus [6] was at most 0.125 µg/mL each time. Besides, the fold change (FC) in the series with DNA [7] and in the series with DNA [8] was 3 to 4 throughout. In addition, in series [9], the viability at 24 h, 20 µM is above 85%. In addition, the selectivity ratio in [10], in [11], in [12], in series [13], in series [14] and in series [15] was 10 each time. The selectivity ratio in [16], in [17], in [18], in [19], in [20] and in [21] was 100 each time.
Consider `CCN(CC)C(=O)c1cc2cc(NC(=O)c3cc(NC(=O)CCCOc4cc5c(cc4OC)C(=O)N4CCC[C@H]4C=N5)cn3C)ccc2s1`, for which the minimum inhibitory concentration (MIC) against Acinetobacter baumannii [1] was 2 µg/mL (≈ 2.92 µM); against Acinetobacter baumannii [22], 2 µg/mL (≈ 2.92 µM); in the series on Enterococcus faecium, 1 µg/mL (≈ 1.46 µM); against Enterococcus faecalis [2], 0.5 µg/mL (≈ 0.73 µM); in the series on Staphylococcus aureus [4], 1 µg/mL (≈ 1.46 µM); in the series on Staphylococcus aureus [5], 1 µg/mL (≈ 1.46 µM). The fold change (FC) in the series on DNA [7] and with DNA [8] was 3 to 4 in each case. Besides, in series [9], the viability at 24 h, 20 µM is above 85%. Besides, the selectivity ratio in [10], in series [11], in series [12], in series [13], in series [14] and in series [15] was 10 each time. Moreover, the selectivity ratio in series [16], in series [17], in [18], in series [19], in [20] and in [21] was 100 throughout.
